Earlier results in patent publication US10588912B2, “Methods of reducing mammographic breast density and/or breast cancer risk” (Havah Therapeutics Pty Ltd., priority 2014, dated 2020).

Details: oral absorption

SMILES: C[C@]12CC[C@H]3[C@@H](CCC4=CC(=O)CC[C@@]43C)[C@@H]1CC[C@@H]2O [testosterone]
- fraction broken down in the intestines by aromatase and other metabolic pathways: approximately 85%
